Like-named read-outs stand apart in the source and are kept apart here.
Columns and labels:
KM12 = experiment: NCI60 five-dose screen, Colon Cancer; format: cell-based; conditions: Homo sapiens; KM12, Colon Cancer; five-dose screen; read-out: GI50
SN12C = experiment: NCI60 five-dose screen, Renal Cancer; format: cell-based; conditions: Homo sapiens, Renal Cancer, five-dose screen, read-out: GI50
COLO 205 = experiment: NCI60 five-dose screen, Colon Cancer; format: cell-based; conditions: Homo sapiens; COLO 205, Colon Cancer; five-dose screen; read-out: GI50
OVCAR-4 = experiment: NCI60 five-dose screen, Ovarian Cancer; format: cell-based; conditions: Homo sapiens; OVCAR-4, Ovarian Cancer; five-dose screen; read-out: GI50
MDA-MB-468 [1] = experiment: NCI60 one-dose screen (10 μM), Breast Cancer; format: cell-based; conditions: Homo sapiens; 10 μM; MDA-MB-468, Breast Cancer; read-out: Growth percent rate
NCI-H322M = experiment: NCI60 five-dose screen, Non-small Cell Lung Cancer; format: cell-based; conditions: Homo sapiens, Non-small Cell Lung Cancer, five-dose screen, read-out: GI50
DU-145 = experiment: NCI60 five-dose screen, Prostate Cancer; format: cell-based; conditions: Homo sapiens; DU-145, Prostate Cancer; five-dose screen; read-out: GI50
RPMI-8226 [2] = experiment: NCI60 one-dose screen (10 μM), Leukemia; format: cell-based; conditions: Homo sapiens; 10 μM; RPMI-8226, Leukemia; read-out: Growth percent rate
UO-31 = experiment: NCI60 one-dose screen (10 μM), Renal Cancer; format: cell-based; conditions: Homo sapiens; 10 μM; UO-31, Renal Cancer; read-out: Growth percent rate
PC-3 = experiment: NCI60 one-dose screen (10 μM), Prostate Cancer; format: cell-based; conditions: Homo sapiens; 10 μM; PC-3, Prostate Cancer; read-out: Growth percent rate
MDA-MB231ATCC = experiment: NCI60 five-dose screen, Breast Cancer; format: cell-based; conditions: Homo sapiens, MDA-MB-231; MDA-MB231ATCC, Breast Cancer; five-dose screen; read-out: GI50
[3] = system: 60 human tumor cell lines (NCI60); experiment: NCI60 five-dose screen, whole panel and sub-panel means; format: cell-based; conditions: Homo sapiens
SNB-19 = experiment: NCI60 five-dose screen, CNS Cancer; format: cell-based; conditions: Homo sapiens; SNB-19, CNS Cancer; five-dose screen; read-out: GI50
RPMI-8226 [4] = experiment: NCI60 five-dose screen, Leukemia; format: cell-based; conditions: Homo sapiens; RPMI-8226, Leukemia; five-dose screen; read-out: GI50
OVCAR-5 = experiment: NCI60 one-dose screen (10 μM), Ovarian Cancer; format: cell-based; conditions: Homo sapiens; 10 μM; OVCAR-5, Ovarian Cancer; read-out: Growth percent rate
HS 578T = experiment: NCI60 one-dose screen (10 μM), Breast Cancer; format: cell-based; conditions: Homo sapiens; 10 μM; HS 578T, Breast Cancer; read-out: Growth percent rate
UACC-62 [5] = experiment: NCI60 one-dose screen (10 μM), Melanoma; format: cell-based; conditions: Homo sapiens; 10 μM; UACC-62, Melanoma; read-out: Growth percent rate
LOX IMVI = experiment: NCI60 five-dose screen, Melanoma; format: cell-based; conditions: Homo sapiens, Melanoma, five-dose screen, read-out: GI50
A498 = experiment: NCI60 one-dose screen (10 μM), Renal Cancer; format: cell-based; conditions: Homo sapiens; 10 μM; A498, Renal Cancer; read-out: Growth percent rate
U251 [6] = experiment: NCI60 five-dose screen, CNS Cancer; format: cell-based; conditions: Homo sapiens, U-251; U251, CNS Cancer; five-dose screen; read-out: GI50
HOP-92 [7] = experiment: NCI60 five-dose screen, Non-small Cell Lung Cancer; format: cell-based; conditions: Homo sapiens; HOP-92, Non-small Cell Lung Cancer; five-dose screen; read-out: GI50
T-47D = experiment: NCI60 one-dose screen (10 μM), Breast Cancer; format: cell-based; conditions: Homo sapiens, T47D; 10 μM; T-47D, Breast Cancer; read-out: Growth percent rate
HCT-15 = experiment: NCI60 five-dose screen, Colon Cancer; format: cell-based; conditions: Homo sapiens; HCT-15, Colon Cancer; five-dose screen; read-out: GI50
U251 [8] = experiment: NCI60 one-dose screen (10 μM), CNS Cancer; format: cell-based; conditions: Homo sapiens, U-251; 10 μM; U251, CNS Cancer; read-out: Growth percent rate
TK-10 = experiment: NCI60 one-dose screen (10 μM), Renal Cancer; format: cell-based; conditions: Homo sapiens; 10 μM; TK-10, Renal Cancer; read-out: Growth percent rate
UACC-257 = experiment: NCI60 five-dose screen, Melanoma; format: cell-based; conditions: Homo sapiens; UACC-257, Melanoma; five-dose screen; read-out: GI50
NCI-H226 = experiment: NCI60 one-dose screen (10 μM), Non-small Cell Lung Cancer; format: cell-based; conditions: Homo sapiens; 10 μM; NCI-H226, Non-small Cell Lung Cancer; read-out: Growth percent rate
OVCAR-3 = experiment: NCI60 five-dose screen, Ovarian Cancer; format: cell-based; conditions: Homo sapiens; OVCAR-3, Ovarian Cancer; five-dose screen; read-out: GI50
MCF7 = experiment: NCI60 five-dose screen, Breast Cancer; format: cell-based; conditions: Homo sapiens; MCF7, Breast Cancer; five-dose screen; read-out: GI50
CAKI-1 = experiment: NCI60 five-dose screen, Renal Cancer; format: cell-based; conditions: Homo sapiens; CAKI-1, Renal Cancer; five-dose screen; read-out: GI50
UACC-62 [9] = experiment: NCI60 five-dose screen, Melanoma; format: cell-based; conditions: Homo sapiens; UACC-62, Melanoma; five-dose screen; read-out: GI50
SK-OV-3 [10] = experiment: NCI60 one-dose screen (10 μM), Ovarian Cancer; format: cell-based; conditions: Homo sapiens; 10 μM; SK-OV-3, Ovarian Cancer; read-out: Growth percent rate
OVCAR-8 = experiment: NCI60 five-dose screen, Ovarian Cancer; format: cell-based; conditions: Homo sapiens; OVCAR-8, Ovarian Cancer; five-dose screen; read-out: GI50
SK-OV-3 [11] = experiment: NCI60 five-dose screen, Ovarian Cancer; format: cell-based; conditions: Homo sapiens; SK-OV-3, Ovarian Cancer; five-dose screen; read-out: GI50
ACHN = experiment: NCI60 five-dose screen, Renal Cancer; format: cell-based; conditions: Homo sapiens, Renal Cancer, five-dose screen, read-out: GI50
MDA-MB-231/ATCC = experiment: NCI60 one-dose screen (10 μM), Breast Cancer; format: cell-based, human; conditions: Homo sapiens; 10 μM; MDA-MB-231/ATCC, Breast Cancer; read-out: Growth percent rate
MDA-MB-468 [12] = experiment: NCI60 five-dose screen, Breast Cancer; format: cell-based; conditions: Homo sapiens; MDA-MB-468, Breast Cancer; five-dose screen; read-out: GI50
HOP-62 = experiment: NCI60 one-dose screen (10 μM), Non-small Cell Lung Cancer; format: cell-based; conditions: Homo sapiens; 10 μM; HOP-62, Non-small Cell Lung Cancer; read-out: Growth percent rate
BT-549 = experiment: NCI60 one-dose screen (10 μM), Breast Cancer; format: cell-based; conditions: Homo sapiens; 10 μM; BT-549, Breast Cancer; read-out: Growth percent rate
M14 = experiment: NCI60 five-dose screen, Melanoma; format: cell-based; conditions: Homo sapiens; M14, Melanoma; five-dose screen; read-out: GI50
SR = experiment: NCI60 one-dose screen (10 μM), Leukemia; format: cell-based; conditions: Homo sapiens, 10 μM, Leukemia, read-out: Growth percent rate
HOP-92 [13] = experiment: NCI60 one-dose screen (10 μM), Non-small Cell Lung Cancer; format: cell-based; conditions: Homo sapiens; 10 μM; HOP-92, Non-small Cell Lung Cancer; read-out: Growth percent rate
[14] = 60 cell, mean over all 60 cell lines, read-out: GI50 Mean
[15] = mean over Breast Cancer panel, read-out: GI50 Mean
[16] = mean over CNS Cancer panel, read-out: GI50 Mean
[17] = mean over Colon Cancer panel, read-out: GI50 Mean
[18] = mean over Leukemia panel, read-out: GI50 Mean
[19] = mean over Melanoma panel, read-out: GI50 Mean
[20] = mean over Non-small Cell Lung Cancer panel, read-out: GI50 Mean
[21] = mean over Ovarian Cancer panel, read-out: GI50 Mean
[22] = mean over Prostate Cancer panel, read-out: GI50 Mean
[23] = mean over Renal Cancer panel, read-out: GI50 Mean

Structure (SMILES): CC[C@]12C=CCN3CC[C@@]4(c5ccc(OC)cc5N(C)[C@H]4[C@@](O)(C(=O)OC)[C@@H]1OC(=O)CCCN1CCN(Cc4ccc(C(F)(F)F)cc4)CC1)[C@@H]32 [Compound 23]
- GI50 (KM12): 1740 nM
- GI50 (SN12C): 2090 nM
- GI50 (COLO 205): 1580 nM
- GI50 (OVCAR-4): 2040 nM
- activity at 10 µM (MDA-MB-468 [1]): -58.2%
- GI50 (NCI-H322M): 2240 nM
- GI50 (DU-145): 1580 nM
- activity at 10 µM (RPMI-8226 [2]): -58.3%
- activity at 10 µM (UO-31): -69.5%
- activity at 10 µM (PC-3): -72%
- GI50 (MDA-MB231ATCC): 1740 nM
- GI50 [3, 14]: 1650 nM
- GI50 [3, 15]: 1530 nM
- GI50 [3, 16]: 1570 nM
- GI50 [3, 17]: 1640 nM
- GI50 [3, 18]: 1710 nM
- GI50 [3, 19]: 1620 nM
- GI50 [3, 20]: 1800 nM
- GI50 [3, 21]: 1770 nM
- GI50 [3, 22]: 1580 nM
- GI50 [3, 23]: 1630 nM
- GI50 ([3]; on almost all cell lines, five-dose screen, read-out: GI50): < 2000 nM
- GI50 (SNB-19): 1580 nM
- GI50 (RPMI-8226 [4]): 2000 nM
- activity at 10 µM (OVCAR-5): -86%
- activity at 10 µM (HS 578T): -61.1%
- activity at 10 µM (UACC-62 [5]): -91.5%
- GI50 (LOX IMVI): 1780 nM
- activity at 10 µM (A498): -93.9%
- GI50 (U251 [6]): 1660 nM
- GI50 (HOP-92 [7]): 1510 nM
- activity at 10 µM (T-47D): -20%
- GI50 (HCT-15): 1740 nM
- activity at 10 µM (U251 [8]): -78.1%
- activity at 10 µM (TK-10): -81.7%
- GI50 (UACC-257): 1740 nM
- activity at 10 µM (NCI-H226): -32.3%
- GI50 (OVCAR-3): 1550 nM
- GI50 (MCF7): 1550 nM
- GI50 (CAKI-1): 1480 nM
- GI50 (UACC-62 [9]): 1660 nM
- activity at 10 µM (SK-OV-3 [10]): -44%
- GI50 (OVCAR-8): 1820 nM
- GI50 (SK-OV-3 [11]): 2000 nM
- GI50 (ACHN): 1780 nM
- activity at 10 µM (MDA-MB-231/ATCC): -94.4%
- GI50 (MDA-MB-468 [12]): 1000 nM
- activity at 10 µM (HOP-62): -86.7%
- activity at 10 µM (BT-549): -92.4%
- GI50 (M14): 1550 nM
- activity at 10 µM (SR): -55.2%
- activity at 10 µM (HOP-92 [13]): -70.7%

Structure (SMILES): CC[C@]12C=CCN3CC[C@@]4(c5ccc(OC)cc5N(C)[C@H]4[C@@](O)(C(=O)OC)[C@@H]1OC(=O)CCC(=O)N1CCN(Cc4ccc(C(F)(F)F)cc4)CC1)[C@@H]32 [Compound 29]
- GI50 (KM12): 11800 nM
- GI50 (SN12C): 11500 nM
- GI50 (COLO 205): 7080 nM
- GI50 (OVCAR-4): 5620 nM
- activity at 10 µM (MDA-MB-468 [1]): -20.5%
- GI50 (NCI-H322M): 14400 nM
- GI50 (DU-145): 11200 nM
- activity at 10 µM (RPMI-8226 [2]): -14.2%
- activity at 10 µM (UO-31): 5.16%
- activity at 10 µM (PC-3): 2.13%
- GI50 (MDA-MB231ATCC): 14100 nM
- GI50 [3, 14]: 9760 nM
- GI50 [3, 15]: 8720 nM
- GI50 [3, 16]: 11100 nM
- GI50 [3, 17]: 9710 nM
- GI50 [3, 18]: 9070 nM
- GI50 [3, 19]: 9420 nM
- GI50 [3, 20]: 10400 nM
- GI50 [3, 21]: 10600 nM
- GI50 [3, 22]: 7300 nM
- GI50 [3, 23]: 9900 nM
- GI50 (SNB-19): 11800 nM
- GI50 (RPMI-8226 [4]): 6920 nM
- activity at 10 µM (OVCAR-5): 15.2%
- activity at 10 µM (HS 578T): 0.42%
- activity at 10 µM (UACC-62 [5]): -19.7%
- GI50 (LOX IMVI): 13800 nM
- activity at 10 µM (A498): 20.1%
- GI50 (U251 [6]): 11200 nM
- GI50 (HOP-92 [7]): 4270 nM
- activity at 10 µM (T-47D): 24%
- GI50 (HCT-15): 10200 nM
- activity at 10 µM (U251 [8]): 19.1%
- activity at 10 µM (TK-10): 45.7%
- GI50 (UACC-257): 11500 nM
- activity at 10 µM (NCI-H226): 16.7%
- GI50 (OVCAR-3): 6460 nM
- GI50 (MCF7): 5620 nM
- GI50 (CAKI-1): 8710 nM
- GI50 (UACC-62 [9]): 11000 nM
- activity at 10 µM (SK-OV-3 [10]): 12.4%
- GI50 (OVCAR-8): 12000 nM
- GI50 (SK-OV-3 [11]): 12600 nM
- GI50 (ACHN): 10700 nM
- activity at 10 µM (MDA-MB-231/ATCC): 3.02%
- GI50 (MDA-MB-468 [12]): 1950 nM
- activity at 10 µM (HOP-62): 22%
- activity at 10 µM (BT-549): -54.5%
- GI50 (M14): 8130 nM
- activity at 10 µM (SR): -48.3%
- activity at 10 µM (HOP-92 [13]): -22.6%
